Laboratory results reported in PubChem BioAssay AID1963833 (Molecular Pharmacology Branch, DTP, NCI, 2024).

System: 883617-216-R-J1-PDC complex spheroid viability
Test: Anticancer human tumor 883617-216-R-J1-PDC patient-derived bladder carcinoma cell line growth inhibition [POLQ]
Details: for IC50: curve of first compound; for viability, T/C: stronger effect = lower value
Summary of the method: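 Three-cell-type spheroids modelling solid tumor plus stroma served as the readout system; POL inhibitors were tested individually and in combination, concentration ranges set by clinical Cmax where known.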

[1] = second compound 0.0316 µM, first compound 0.0316 µM
[2] = second compound 0.0316 µM, first compound 0.1 µM
[3] = second compound 0.0316 µM, first compound 0.316 µM
[4] = second compound 0.0316 µM, first compound 1 µM
[5] = second compound 0.0316 µM, first compound 3.16 µM
[6] = second compound 0.0316 µM, first compound 10 µM
[7] = second compound 0.1 µM, first compound 0.0316 µM
[8] = second compound 0.1 µM, first compound 0.1 µM
[9] = second compound 0.1 µM, first compound 0.316 µM
[10] = second compound 0.1 µM, first compound 1 µM
[11] = second compound 0.1 µM, first compound 3.16 µM
[12] = second compound 0.1 µM, first compound 10 µM
[13] = second compound 0.316 µM, first compound 0.0316 µM
[14] = second compound 0.316 µM, first compound 0.1 µM
[15] = second compound 0.316 µM, first compound 0.316 µM
[16] = second compound 0.316 µM, first compound 1 µM
[17] = second compound 0.316 µM, first compound 3.16 µM
[18] = second compound 0.316 µM, first compound 10 µM
[19] = second compound 1 µM, first compound 0.0316 µM
[20] = second compound 1 µM, first compound 0.1 µM
[21] = second compound 1 µM, first compound 0.316 µM
[22] = second compound 1 µM, first compound 1 µM
[23] = second compound 1 µM, first compound 3.16 µM
[24] = second compound 1 µM, first compound 10 µM
[25] = second compound 3.16 µM, first compound 0.0316 µM
[26] = second compound 3.16 µM, first compound 0.1 µM
[27] = second compound 3.16 µM, first compound 0.316 µM
[28] = second compound 3.16 µM, first compound 1 µM
[29] = second compound 3.16 µM, first compound 3.16 µM
[30] = second compound 3.16 µM, first compound 10 µM
[31] = second compound 10 µM, first compound 0.0316 µM
[32] = second compound 10 µM, first compound 0.1 µM
[33] = second compound 10 µM, first compound 0.316 µM
[34] = second compound 10 µM, first compound 1 µM
[35] = second compound 10 µM, first compound 3.16 µM
[36] = second compound 10 µM, first compound 10 µM
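Also: spheroids exposed to compounds for seven days before readout.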
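For viability, T/C in this document: 100% = DMSO vehicle control viability.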

## CCc1cc2c(N3CCc4c(cc(Cn5ccnc5)cc4-c4cn(C)nc4C(F)(F)F)C3=O)ccnc2c(OC)n1 + COC1C(OC(N)=O)C(O)C(Oc2ccc3c(O)c(NC(=O)c4ccc(O)c(CC=C(C)C)c4)c(=O)oc3c2C)OC1(C)C
Second compound 0.0316 µM
  IC50: > 10000 nM
Second compound 0.1 µM
  IC50: > 10000 nM
Second compound 0.316 µM
  IC50: > 10000 nM
Second compound 1 µM
  IC50: > 10000 nM
Second compound 3.16 µM
  IC50: > 10000 nM
Second compound 10 µM
  IC50: > 10000 nM
[1]
  viability, T/C: 103%
[2]
  viability, T/C: 103%
[3]
  viability, T/C: 97.7%
[4]
  viability, T/C: 104%
[5]
  viability, T/C: 78.8%
[6]
  viability, T/C: 57.6%
[7]
  viability, T/C: 97.8%
[8]
  viability, T/C: 93.9%
[9]
  viability, T/C: 101%
[10]
  viability, T/C: 92.5%
[11]
  viability, T/C: 72.7%
[12]
  viability, T/C: 58.6%
[13]
  viability, T/C: 106%
[14]
  viability, T/C: 93.4%
[15]
  viability, T/C: 115%
[16]
  viability, T/C: 99.9%
[17]
  viability, T/C: 78.2%
[18]
  viability, T/C: 53.5%
[19]
  viability, T/C: 102%
[20]
  viability, T/C: 93.1%
[21]
  viability, T/C: 115%
[22]
  viability, T/C: 100%
[23]
  viability, T/C: 82.4%
[24]
  viability, T/C: 57.1%
[25]
  viability, T/C: 94.6%
[26]
  viability, T/C: 95.3%
[27]
  viability, T/C: 106%
[28]
  viability, T/C: 104%
[29]
  viability, T/C: 79.2%
[30]
  viability, T/C: 62.6%
[31]
  viability, T/C: 103%
[32]
  viability, T/C: 93.4%
[33]
  viability, T/C: 110%
[34]
  viability, T/C: 106%
[35]
  viability, T/C: 75.3%
[36]
  viability, T/C: 57.8%

## COc1ccc([C@@H](O)c2cc(-c3ncnc4cc(N5CCOCC5)ccc34)c(F)cc2Cl)nn1 + COC1C(OC(N)=O)C(O)C(Oc2ccc3c(O)c(NC(=O)c4ccc(O)c(CC=C(C)C)c4)c(=O)oc3c2C)OC1(C)C
Second compound 0.0316 µM
  IC50: 2900 nM
Second compound 0.1 µM
  IC50: 1800 nM
Second compound 0.316 µM
  IC50: 1940 nM
Second compound 1 µM
  IC50: 2440 nM
Second compound 3.16 µM
  IC50: 2440 nM
Second compound 10 µM
  IC50: 3210 nM
[1]
  viability, T/C: 92.5%
[2]
  viability, T/C: 104%
[3]
  viability, T/C: 94.5%
[4]
  viability, T/C: 77.5%
[5]
  viability, T/C: 47.9%
[6]
  viability, T/C: 39.1%
[7]
  viability, T/C: 98.5%
[8]
  viability, T/C: 82.2%
[9]
  viability, T/C: 104%
[10]
  viability, T/C: 61.3%
[11]
  viability, T/C: 45.2%
[12]
  viability, T/C: 33%
[13]
  viability, T/C: 93.9%
[14]
  viability, T/C: 89.2%
[15]
  viability, T/C: 76.8%
[16]
  viability, T/C: 56.1%
[17]
  viability, T/C: 46%
[18]
  viability, T/C: 28.2%
[19]
  viability, T/C: 108%
[20]
  viability, T/C: 85.8%
[21]
  viability, T/C: 80.8%
[22]
  viability, T/C: 61.3%
[23]
  viability, T/C: 45.1%
[24]
  viability, T/C: 33.1%
[25]
  viability, T/C: 95.9%
[26]
  viability, T/C: 95.2%
[27]
  viability, T/C: 78.3%
[28]
  viability, T/C: 65.5%
[29]
  viability, T/C: 45.4%
[30]
  viability, T/C: 33.3%
[31]
  viability, T/C: 87%
[32]
  viability, T/C: 79.3%
[33]
  viability, T/C: 86.4%
[34]
  viability, T/C: 68.1%
[35]
  viability, T/C: 51.3%
[36]
  viability, T/C: 34.2%
